Laboratory results published in patent US8168619B1, “Hormonal composition based on a progestational agent and an oestrogen and use thereof” (Laboratoire Theramex, priority 1999, dated 2012).
Where two headings read alike, the source gives them in different places.

Legend:
[1] = NEUMANN publication; cited from earlier work
ovulation [2] = conditions: NEUMANN publication; cited from earlier work
endometrium [3] = conditions: NEUMANN publication; cited from earlier work
[4] = Dose producing an adequate delay in the onset of periods (literature); assay type: in vivo; conditions: NEUMANN; reference progestative norgestrel (=1)
Text: (§1) 2) Apart from the above, it would be reasonable to think that the doses claimed should be based on data from clinical pharmacology and/or clinical data previously published and commonly accepted. Now, if the doses defined as in the PLUNKETT patents are considered, it is easy to see that in most cases the active doses published already a long time ago, i.e. before the said patents were filed (NEUMANN, 1977) or more recently (KUHL, 1996), are very coherent but only rarely lie within the dose ranges claimed in the patents in the name of PLUNKETT (Table 2).

endometrium [5] = assay: Dose inducing transformation of the endometrium (literature); assay type: in vivo; conditions: NEUMANN; reference progestative norgestrel (=1)
Text: as §1

[6] = NEUMANN publication; cited from earlier work; remark: listed apart in the source
[7] = Dose having a contraceptive effect (literature); assay type: in vivo; conditions: NEUMANN; reference progestative norgestrel (=1)
Text: as §1

ovulation [8] = assay: Dose inhibiting ovulation (literature); assay type: in vivo; conditions: NEUMANN; reference progestative norgestrel (=1)
Text: as §1

menopausal women [9] = assay: Continuous combined estradiol + nomegestrol acetate, 6 months: genital bleeding; assay type: in vivo
Description: (§2) A trial was carried out to study the effects on the endometrium of the continuous combined association of an oral estradiol dose equivalent to 1.5 mg and various doses of nomegestrol acetate.
(§3) This consisted in the treatment for 6 consecutive months of 179 women who had been menopausal for at least 3 years, with 1.5 mg per day of estradiol combined continuously with 4 different doses of nomegestrol acetate: 5 mg/day (n=47); 2.5 mg/day (n=42); 1.25 mg/day (n=43) and 0.625 mg/day (n=47).
(§4) The impact of these four associations on the endometrium was evaluated by recording the characteristics of genital bleeding, measuring the thickness of the endometrium by endovaginal echography before and at the end of the therapy, and by carrying out a biopsy of the endometrium before and at the end of the therapy.

endometrium [10] = assay: Continuous combined estradiol + nomegestrol acetate, 6 months: biopsy of the endometrium; assay type: in vivo, women
Description: as §2, §3, §4

endometrial cells = assay: Sequential estrogen-progestative therapy: histological appearance of endometrium biopsy; assay type: in vivo, women; conditions: for Number of mitoses (% of section in which mitoses were present), Glands: with 30 μg ethinyl estradiol, biopsy Day 17-20 of second cycle
Description: (§5) Menopausal women, whether naturally or as the result of surgery, were subjected to a sequential estrogen-progestative therapy. From Day 1 to Day 12 they received 30 μg of ethinyl estradiol and then, from Day 13 to Day 22, the same dose of ethinyl estradiol associated with different doses of nomegestrol acetate or chlormadinone acetate. The doses were as follows:
(§6) The number of women was between 2 and 11, depending on the group. There was then a therapeutic pause of 7 days followed by a second treatment cycle.
(§7) The parameters taken into account were as follows: • the interval before periods commenced after the therapy had been interrupted, following the first and second treatment cycles; • the histological appearance of the endometrium recovered in a biopsy carried out between Day 17 and Day 20 of the second cycle.

endometrium [11] = assay: Continuous combined estradiol + nomegestrol acetate, 6 months: endometrial thickness by endovaginal echography; assay type: in vivo, women; conditions: 6 months continuous
Description: as §2, §3, §4

endometrium [12] = conditions: cited from earlier work
menopausal women [13] = assay: Sequential estrogen-progestative therapy: interval before periods after therapy is interrupted; assay type: in vivo; conditions: Day 13-22, with 30 μg ethinyl estradiol
Description: as §5, §6, §7

[14] = doses higher than those of the application, prolonged treatments; cited from earlier work
[15] = NOMAC 0.625 mg/day (n = 32) + estradiol (2 mg estradiol valerate)
[16] = NOMAC 0.625 mg/day + estradiol (2 mg estradiol valerate)
[17] = NOMAC 1.25 mg/day (n = 33) + estradiol (2 mg estradiol valerate)
[18] = NOMAC 1.25 mg/day + estradiol (2 mg estradiol valerate)
[19] = NOMAC 2.5 mg/day (n = 34) + estradiol (2 mg estradiol valerate)
[20] = NOMAC 2.5 mg/day + estradiol (2 mg estradiol valerate)
[21] = NOMAC 5 mg/day (n = 40) + estradiol (2 mg estradiol valerate)
[22] = NOMAC 5 mg/day + estradiol (2 mg estradiol valerate)

## C#CC1(O)CC[C@H]2[C@@H]3CCC4=CC(=O)CC[C@@H]4[C@H]3CC[C@@]21CC (stereo partly shown) [Norgestrel]
[1]
  Dose necessary to have a contraceptive effect (4): 250 µg/day
Ovulation [2]
  Dose necessary to inhibit ovulation (3): 100 µg/day
Endometrium [3]
  Dose necessary to induce transformation of the endometrium (1): 1200 µg/day
[4]
  Dose ratio, Menstruation (2): 1.0
Endometrium [5]
  Dose ratio, Endometrium (1): 1.0
[6]
  Dose necessary to produce an adequate delay in the onset of periods (2), Menstruation: 2000 µg/day
[7]
  Dose ratio, Contraception (4): 1.0
Ovulation [8]
  Dose ratio, Ovulation (3): 1.0

## CC(=O)O[C@]1(C(C)=O)CC[C@H]2[C@@H]3C=C(C)C4=CC(=O)CC[C@@H]4[C@H]3CC[C@@]21C [Nomegestrol acetate, nomegestrol acetate]
Menopausal women [9]; 0.625 mg/day + 1.5 mg/day estradiol
  Percentage of women who showed no genital bleeding at all throughout the therapy: 42.5%
Menopausal women [9]; 1.25 mg/day + 1.5 mg/day estradiol
  Percentage of women who showed no genital bleeding at all throughout the therapy: 58.1%
Menopausal women [9]; 2.5 mg/day + 1.5 mg/day estradiol
  Percentage of women who showed no genital bleeding at all throughout the therapy: 52.4%
Menopausal women [9]; 5 mg/day + 1.5 mg/day estradiol
  Percentage of women who showed no genital bleeding at all throughout the therapy: 68.1%
Endometrium [10]; [15]
  Absence of endometrium, number of women: 5
  Atrophic endometrium, number of women: 19
  Polyps, number of women: 0
  Secretory endometrium, number of women: 8
Endometrium [10]; [16]
  Absence of endometrium, percentage: (15.6) percentage
  Atrophic endometrium, percentage: (59.4) percentage
  Secretory endometrium, percentage: (25.0) percentage
Endometrium [10]; [17]
  Absence of endometrium, number of women: 10
  Atrophic endometrium, number of women: 10
  Polyps, number of women: 1
  Secretory endometrium, number of women: 12
Endometrium [10]; [18]
  Absence of endometrium, percentage: (30.3) percentage
  Atrophic endometrium, percentage: (30.3) percentage
  Polyps, percentage: (3.0) percentage
  Secretory endometrium, percentage: (36.4) percentage
Endometrium [10]; [19]
  Absence of endometrium, number of women: 3
  Atrophic endometrium, number of women: 8
  Polyps, number of women: 1
  Secretory endometrium, number of women: 22
Endometrium [10]; [20]
  Absence of endometrium, percentage: (8.8) percentage
  Atrophic endometrium, percentage: (23.5) percentage
  Polyps, percentage: (2.9) percentage
  Secretory endometrium, percentage: (64.7) percentage
Endometrium [10]; [21]
  Absence of endometrium, number of women: 3
  Atrophic endometrium, number of women: 3
  Polyps, number of women: 0
  Secretory endometrium, number of women: 34
Endometrium [10]; [22]
  Absence of endometrium, percentage: (7.5) percentage
  Atrophic endometrium, percentage: (7.5) percentage
  Secretory endometrium, percentage: (85.0) percentage
Endometrial cells; 0.1 mg/day
  Number of mitoses (% of section in which mitoses were present), Glands: 50%
Endometrial cells; 0.25 mg/day
  Number of mitoses (% of section in which mitoses were present), Glands: 50%
Endometrial cells; 0.5 mg/day
  Number of mitoses (% of section in which mitoses were present), Glands: 0%
Endometrial cells; 1 mg/day
  Number of mitoses (% of section in which mitoses were present), Glands: 0%
Endometrial cells; 2 mg/day
  Number of mitoses (% of section in which mitoses were present), Glands: 0%
Endometrial cells; 2.5 mg/day
  Number of mitoses (% of section in which mitoses were present), Glands: 0%
Endometrial cells; 5 mg/day
  Number of mitoses (% of section in which mitoses were present), Glands: 0%
Endometrial cells; 10 mg/day
  Number of mitoses (% of section in which mitoses were present), Glands: 30%
Endometrial cells; sequential therapy with 30 μg ethinyl estradiol
  Dose at which mitosis no longer takes place in glandular cells: ≥ 0.5 mg/day
Endometrium [11]; [16]
  Mean thickness at the end of the treatment: 3.18 mm
  Mean thickness increase under the treatment: 0.39 mm
Endometrium [11]; [18]
  Mean thickness at the end of the treatment: 4.05 mm
  Mean thickness increase under the treatment: 1.12 mm
Endometrium [11]; [20]
  Mean thickness at the end of the treatment: 3.93 mm
  Mean thickness increase under the treatment: 1.36 mm
Endometrium [11]; [22]
  Mean thickness at the end of the treatment: 3.83 mm
Endometrium [11]; NOMAC 5 mg/day + estradiol (2 mg estradiol valerate), listed as NOMAC
  Mean thickness increase under the treatment: 1.57 mm
Endometrium [11]; NOMAC 5 mg/day + estradiol (2 mg estradiol valerate), listed as nomegestrol acetate
  Mean thickness increase under the treatment: 1.56 mm
Endometrium [12]; 5 mg/day for 12 days per cycle, with various estrogens, 150 women over 1 year (THOMAS et al. 1993)
  Endometrial hyperplasia: makes it possible to prevent endometrial hyperplasia
Endometrium [12]; 5 mg/day for 14 days per cycle, women treated with percutaneous estradiol (BERNARD et al. 1994)
  Endometrial hyperplasia: absence of hyperplasia was confirmed
Menopausal women [13]; 0.1 mg/day
  Interval before the appearance of periods after the therapy is discontinued: -0.5 ± 1.5 days
Menopausal women [13]; 0.25 mg/day
  Interval before the appearance of periods after the therapy is discontinued: -0.5 ± 0.5 days
Menopausal women [13]; 0.5 mg/day
  Interval before the appearance of periods after the therapy is discontinued: 1.5 ± 0.5 days
Menopausal women [13]; 1.0 mg/day
  Interval before the appearance of periods after the therapy is discontinued: 2.7 ± 0.2 days
Menopausal women [13]; 2.5 mg/day
  Interval before the appearance of periods after the therapy is discontinued: 3.2 ± 0.2 days
Menopausal women [13]; 5 mg/day
  Interval before the appearance of periods after the therapy is discontinued: 4.3 ± 0.4 days
Menopausal women [13]; 10 mg/day
  Interval before the appearance of periods after the therapy is discontinued: 3.8 ± 0.8 days
[14]
  Tolerance: effect on lipids profile, tolerance to glucides, arterial pressure, coagulation factors: no effect on the lipids profile, the tolerance to glucides, the arterial pressure and the coagulation factors
